Results reported in patent US20260274891A1, “¿ OPIOID RECEPTOR AGONIST AND USE THEREOF” (CHENGDU AODA BIOTECHNOLOGY CO., LTD., priority 2023, published 2026).
Where two headings read alike, the source gives them in different places. Bridge positions count the residues as written; N and C are the ends. Square brackets hold non-standard residues; d marks the D form. Side chains are listed from the residue outwards. Peptide text beside a SMILES is read from it. I, II: the chains in the order shown. * marks the point of attachment. X3 = NCCCC[C@@H](NC(=O)[C@@H](CCCCN)NC(=O)C1(N)CCN(*)CC1)C(=O)O; X28 = NCCCC[C@H](NC(=O)[C@H](CCCCN)NC(=O)C1(N)CCN(*)CC1)C(=O)O; X12 = CCOc1ccc(C[C@@H](NC(=O)[C@H](N)Cc2ccccc2)C(=O)*)cc1; Piperidin1yl(4-NH2,4-COOH) = NC1(C(=O)O)CCN(*)CC1; Piperidinyl(4-NH2,4-CONH2) = NC(=O)C1(N)CCN(*)CC1; X10 = NCCCC[C@@H](NC(=O)C1(N)CCN(*)CC1)C(=O)O; X4 = NCCCC[C@H](NC(=O)C1(N)CCN(*)CC1)C(=O)O; X6 = NCCCC[C@H](NC(=O)C1(N)CCN(*)CC1)C(N)=O; dAla(cPr) = N[C@H](CC1CC1)C(=O)O; Api = NC1(C(=O)O)CCNCC1; iPr = CC(C)*

Target: T1, human κ opioid receptor (OPRK1) (Homo sapiens, UniProt P41145)
T1 construct: expressed in transfected cells; host or cells: CHO-K1
T1 sequence (P41145 whole entry): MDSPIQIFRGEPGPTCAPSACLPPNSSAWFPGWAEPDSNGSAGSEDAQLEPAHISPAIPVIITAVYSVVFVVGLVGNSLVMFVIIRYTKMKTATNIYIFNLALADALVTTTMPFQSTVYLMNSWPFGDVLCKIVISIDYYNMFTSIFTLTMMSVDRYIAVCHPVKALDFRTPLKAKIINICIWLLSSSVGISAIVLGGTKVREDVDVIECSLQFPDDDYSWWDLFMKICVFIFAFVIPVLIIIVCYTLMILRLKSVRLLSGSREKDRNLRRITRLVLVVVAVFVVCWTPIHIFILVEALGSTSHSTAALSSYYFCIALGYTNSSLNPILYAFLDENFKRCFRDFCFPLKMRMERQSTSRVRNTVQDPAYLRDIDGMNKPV
Test: Determination of activities of κ receptor agonists: inhibition of forskolin-stimulated cAMP release (HTRF) in stably transfected CHO-K1 cells
Format: cell-based
Conditions: for Relative Activity %: relative to Difelikefalin = 100.0
Text: Gi-coupled human κ opioid receptor (OPRK1), upon stimulation with its specific opioid receptor agonists, can inhibit the intracellular adenylate cyclase pathway, and decrease cAMP levels. Forskolin can stimulate cAMP release in cell lines highly expressing opioid receptors. By stimulating cell lines stably transfected with opioid receptors, the inhibitory effect of a test compound on forskolin-stimulated cAMP release can be measured to determine the activity of the compound. The relative light units (RLU) from the cells after stimulation with different doses were measured via the homogeneous time-resolved fluorescence technique (HTRF), and the EC50 value of the agonist was subsequently calculated. This activity determination method is a currently commonly used method for determining the activities of opioid receptor agonists at home and abroad.
A CHO-K1 cell line stably expressing opioid receptors was used. Stably transfected cells were stimulated with various concentrations of agonists (under the stimulation of a certain concentration of forskolin). The relative light units from the cells after stimulation with different doses were measured, from which the EC50 value of the agonist was subsequently obtained by calculation.

[1] = CHO-K1 cell line stably expressing opioid receptors, forskolin-stimulated cAMP, HTRF, read-out: EC50

Structure (SMILES)	EC50 [nM]	Relative Activity % [%]	EC50 [1] [nM]
CCOc1ccc(C[C@@H](NC(=O)[C@H](N)Cc2ccccc2)C(=O)N[C@H](CC(C)C)C(=O)N[C@H](CCCCN)C(=O)N2CCC(N)(C(=O)N[C@H](CCCCN)C(=O)O)CC2)cc1 [Compound 16, D-Phe-D-Tyr(Et)-D-Leu-D-Lys-4-aminopiperidine-4-carboxamide-D-Lys-OH] (H-[dF][dY](Et)[dL][dK]-X10; N-terminus assumed)	0.0431	1408.8	
CCOc1ccc(C[C@@H](NC(=O)[C@H](N)Cc2ccccc2)C(=O)N[C@H](CC(C)C)C(=O)N[C@H](CCCCN)C(=O)N2CCC(N)(C(=O)NCC(=O)NCC(=O)NCC(=O)NCC(=O)NCC(=O)N[C@H](CCCCN)C(=O)O)CC2)cc1 [Compound 66, D-Phe-D-Tyr(Et)-D-Leu-D-Lys-4-aminopiperidine-4-carboxamide-Gly-Gly-Gly-Gly-Gly-D-Lys-OH] (H-[Api]([dK-dL-X12])GGGGG[dK]-OH; N-terminus assumed)	0.0895	678.4	
CCc1ccc(C[C@@H](NC(=O)[C@H](N)Cc2ccccc2)C(=O)N[C@H](CC(C)C)C(=O)N[C@H](CCCCN)C(=O)N2CCC(N)(C(=O)N[C@H](CCCCN)C(=O)O)CC2)cc1 [Compound 134, D-Phe-D-Phe(4-Et)-D-Leu-D-Lys-4-aminopiperidine-4-carboxamide-D-Lys-OH]	0.133	457.6	
CC(C)C[C@@H](NC(=O)[C@@H](Cc1ccc(I)cc1)NC(=O)[C@H](N)Cc1ccccc1)C(=O)N[C@H](CCCCN)C(=O)N1CCC(N)(C(=O)N[C@H](CCCCN)C(N)=O)CC1 [Compound 125, D-Phe-D-Phe(4-I)-D-Leu-D-Lys-4-aminopiperidine-4-carboxamide-D-Lys-NH2]	0.055	1104.0	
CCOc1ccc(C[C@@H](NC(=O)[C@H](N)Cc2ccccc2)C(=O)N[C@H](CC2CC2)C(=O)N[C@H](CCCCN)C(=O)N2CCC(N)(C(=O)N[C@@H](CCCCN)C(N)=O)CC2)cc1 [Compound 69, D-Phe-D-Tyr(Et)-D-cyclopropylalanine-D-Lys-4-aminopiperidine-4-carboxamide-Lys-NH2] (H-[dF][dY](Et)[dAla(cPr)][dK]-X6; N-terminus assumed)		1432.1	0.0424
CC(C)C[C@@H](NC(=O)[C@@H](Cc1ccc(Cl)cc1)NC(=O)[C@H](N)Cc1ccccc1)C(=O)N[C@H](CCCCN)C(=O)N1CCC(N)(C(=O)O)CC1 [Compound 110, D-Phe-D-Phe(4-C1)-D-Leu-D-Lys-4-aminopiperidine-4-carboxamide-OH]	0.149	408.6	
CC(C)C[C@@H](NC(=O)[C@@H](Cc1ccc(OC(C)C)cc1)NC(=O)[C@H](N)Cc1ccccc1)C(=O)N[C@H](CCCCN)C(=O)N1CCC(N)(C(=O)N[C@@H](CCCCN)C(=O)O)CC1 [Compound 100, D-Phe-D-Tyr(Ipr)-D-Leu-D-Lys-4-aminopiperidine-4-carboxamide-Lys-OH] (H-[dF][dY](iPr)[dL][dK]-X4; N-terminus assumed)	0.0716	848.0	
CC(C)C[C@@H](NC(=O)[C@@H](Cc1ccc(OC(C)C)cc1)NC(=O)[C@H](N)Cc1ccccc1)C(=O)N[C@H](CCCCN)C(=O)N1CCC(N)(C(=O)O)CC1 [Compound 98, D-Phe-D-Tyr(Ipr)-D-Leu-D-Lys-4-aminopiperidine-4-carboxamide-OH] (H-[dF][dY](iPr)[dL][dK]-{Piperidin1yl(4-NH2,4-COOH)}; N-terminus assumed)	0.145	418.2	
CCOc1ccc(C[C@@H](NC(=O)[C@H](N)Cc2ccccc2)C(=O)N[C@H](CC(C)C)C(=O)N[C@H](CCCCN)C(=O)N2CCC(N)(C(=O)N[C@@H](CCCCN)C(N)=O)CC2)cc1 [Compound 3, D-Phe-D-Tyr(Et)-D-Leu-D-Lys-4-aminopiperidine-4-carboxamide-Lys-NH2] (H-[dF][dY](Et)[dL][dK]-X6; N-terminus assumed)	0.0394	1541.1	
CCOc1ccc(C[C@@H](NC(=O)[C@H](N)Cc2ccccc2)C(=O)N[C@H](CC2CC2)C(=O)N[C@H](CCCCN)C(=O)N2CCC(N)(C(N)=O)CC2)cc1 [Compound 67, D-Phe-D-Tyr(Et)-D-cyclopropylalanine-D-Lys-4-aminopiperidine-4-carboxamide-NH2] (H-[dF][dY](Et)[dAla(cPr)][dK]-{Piperidinyl(4-NH2,4-CONH2)}; N-terminus assumed)		477.7	0.127
CCOc1ccc(C[C@@H](NC(=O)[C@H](N)Cc2ccccc2)C(=O)N[C@H](CC(C)C)C(=O)N[C@H](CCCCN)C(=O)N2CCC(N)(C(=O)NCC(=O)NCC(=O)NCC(=O)NCC(=O)N[C@@H](CCCCN)C(N)=O)CC2)cc1 [Compound 59, D-Phe-D-Tyr(Et)-D-Leu-D-Lys-4-aminopiperidine-4-carboxamide-Gly-Gly-Gly-Gly-Lys-NH2] (H-[Api]([dK-dL-X12])GGGGK-NH2; N-terminus assumed)	0.0694	874.9	
CCOc1ccc(C[C@@H](NC(=O)[C@H](N)Cc2ccccc2)C(=O)N[C@H](CC(C)C)C(=O)N[C@H](CCCCN)C(=O)N2CCC(N)(C(=O)N[C@H](CCCCN)C(=O)N[C@H](CCCCN)C(=O)N[C@H](CCCCN)C(N)=O)CC2)cc1 [Compound 19, D-Phe-D-Tyr(Et)-D-Leu-D-Lys-4-aminopiperidine-4-carboxamide-D-Lys-D-Lys-D-Lys-NH2] (I: H-[Api][dK][dK][dK]-NH2 / II: H-[dF][dY](Et)[dL][dK]; amide I:1-II:C; N-terminus assumed)	0.0479	1267.6	
CCOc1ccc(C[C@@H](NC(=O)[C@H](N)Cc2ccccc2)C(=O)N[C@H](CC(C)C)C(=O)N[C@H](CCCCN)C(=O)N2CCC(N)(C(=O)NCC(=O)NCC(=O)NCC(=O)N[C@H](CCCCN)C(N)=O)CC2)cc1 [Compound 57, D-Phe-D-Tyr(Et)-D-Leu-D-Lys-4-aminopiperidine-4-carboxamide-Gly-Gly-Gly-D-Lys-NH2] (H-[Api]([dK-dL-X12])GGG[dK]-NH2; N-terminus assumed)	0.0514	1181.3	
CC(C)C[C@@H](NC(=O)[C@@H](Cc1ccc(Cl)cc1)NC(=O)[C@H](N)Cc1ccccc1)C(=O)N[C@H](CCCCN)C(=O)N1CCC(N)(C(=O)N[C@H](CCCCN)C(=O)O)CC1 [Compound 114, D-Phe-D-Phe(4-C1)-D-Leu-D-Lys-4-aminopiperidine-4-carboxamide-D-Lys-OH]	0.0515	1179.0	
CCOc1ccc(C[C@@H](NC(=O)[C@H](N)Cc2ccccc2)C(=O)N[C@H](CC(C)C)C(=O)N[C@H](CCCCN)C(=O)N2CCC(N)(C(=O)N[C@H](CCCCN)C(=O)N[C@H](CCCCN)C(=O)O)CC2)cc1 [Compound 18, D-Phe-D-Tyr(Et)-D-Leu-D-Lys-4-aminopiperidine-4-carboxamide-D-Lys-D-Lys-OH] (H-[dF][dY](Et)[dL][dK]-X3; N-terminus assumed)	0.046	1320.0	
CC(C)C[C@@H](NC(=O)[C@@H](Cc1ccc(I)cc1)NC(=O)[C@H](N)Cc1ccccc1)C(=O)N[C@H](CCCCN)C(=O)N1CCC(N)(C(=O)O)CC1 [Compound 122, D-Phe-D-Phe(4-I)-D-Leu-D-Lys-4-aminopiperidine-4-carboxamide-OH]	0.12	505.6	
CCOc1ccc(C[C@@H](NC(=O)[C@H](N)Cc2ccccc2)C(=O)N[C@H](CC(C)C)C(=O)N[C@H](CCCCN)C(=O)N2CCC(N)(C(=O)N[C@@H](CCCCN)C(=O)N[C@@H](CCCCN)C(=O)O)CC2)cc1 [Compound 6, D-Phe-D-Tyr(Et)-D-Leu-D-Lys-4-aminopiperidine-4-carboxamide-Lys-Lys-OH] (H-[dF][dY](Et)[dL][dK]-X28; N-terminus assumed)	0.0402	1510.4	
CCOc1ccc(C[C@@H](NC(=O)[C@H](N)Cc2ccccc2)C(=O)N[C@H](CC(C)C)C(=O)N[C@H](CCCCN)C(=O)N2CCC(N)(C(=O)NCC(=O)NCC(=O)NCC(=O)NCC(=O)N[C@H](CCCCN)C(N)=O)CC2)cc1 [Compound 61, D-Phe-D-Tyr(Et)-D-Leu-D-Lys-4-aminopiperidine-4-carboxamide-Gly-Gly-Gly-Gly-D-Lys-NH2] (H-[Api]([dK-dL-X12])GGGG[dK]-NH2; N-terminus assumed)	0.0706	860.1	
CCOc1ccc(C[C@@H](NC(=O)[C@H](N)Cc2ccccc2)C(=O)N[C@H](CC(C)C)C(=O)N[C@H](CCCCN)C(=O)N2CCC(N)(C(=O)NCC(=O)NCC(=O)N[C@H](CCCCN)C(=O)O)CC2)cc1 [Compound 54, D-Phe-D-Tyr(Et)-D-Leu-D-Lys-4-aminopiperidine-4-carboxamide-Gly-Gly-D-Lys-OH] (I: H-[Api]GG[dK]-OH / II: H-[dF][dY](Et)[dL][dK]; amide I:1-II:C; N-terminus assumed)	0.0471	1289.2	
CCc1ccc(C[C@@H](NC(=O)[C@H](N)Cc2ccccc2)C(=O)N[C@H](CC(C)C)C(=O)N[C@H](CCCCN)C(=O)N2CCC(N)(C(=O)N[C@H](CCCCN)C(N)=O)CC2)cc1 [Compound 133, D-Phe-D-Phe(4-Et)-D-Leu-D-Lys-4-aminopiperidine-4-carboxamide-D-Lys-NH2]	0.132	461.7	
